# pKi: −log10 of the molar value.
# Key:
# [1] = molecular target: T1, σ1R (Cavia porcellus, UniProt Q60492); experiment: Ex vivo competitive radioligand binding assay for σ1R, [3H](+)-pentazocine; parameters: species or system Dunkin Hartley guinea pig; settings: guinea pig brain membranes
# T1 construct: guinea pig brain membranes protein; from tissue; host or cells: guinea pig brain membranes
# Experimental: (§1) The ex vivo binding affinities of σRs of CNY‐01 and CNY‐02 were measured using a competitive radioligand binding assay.^[ [35] ^]
# (§2) The following specific radioligands and tissue sources were used: (a) σ 1R, [^3H] (+)‐pentazocine, Dunkin Hartley guinea pig brain membranes; (b) σ 2R, [^3H]‐DTG, Dunkin Hartley guinea pig brain membranes. Membrane preparation of brain tissue was performed following the previously reported method.4 Generally, for σ 1R binding test, guinea pig brain membranes protein (5‐10 mg), [^3H]‐(+)‐pentazocine (4 nM), test compounds solution in various concentrations (10^−5 to 10^−10 M) were incubated at 25 °C for 180 min in Tris‐HCl buffer (pH 8.0). For σ 2R binding study, the membrane suspension was incubated with [^3H]‐DTG (3 nM), different concentration test compounds, within 400 nM (+)‐SKF10047 to block σ 1R. Nonspecific binding was conducted in both binding assays under similar conditions, adding […] haloperidol. After incubation, the mixture was rapidly filtrated through Whatman GF/B glass filters, washed twice and transferred to scintillation vials, and the radioactivity bound was measured by a Beckman LS 6500 liquid scintillation counter. Inhibition constants (Ki) were calculated based on the Cheng and Prusoff equation after the IC50 values were obtained.
# [2] = molecular target: T2, H4 (Homo sapiens, UniProt Q9H3N8); experiment: PDSP radioligand assay; assay type: binding
# T2 construct: purchased NIMH Psychoactive Drug Screening Program (PDSP)
# T2 sequence (Q9H3N8 whole entry): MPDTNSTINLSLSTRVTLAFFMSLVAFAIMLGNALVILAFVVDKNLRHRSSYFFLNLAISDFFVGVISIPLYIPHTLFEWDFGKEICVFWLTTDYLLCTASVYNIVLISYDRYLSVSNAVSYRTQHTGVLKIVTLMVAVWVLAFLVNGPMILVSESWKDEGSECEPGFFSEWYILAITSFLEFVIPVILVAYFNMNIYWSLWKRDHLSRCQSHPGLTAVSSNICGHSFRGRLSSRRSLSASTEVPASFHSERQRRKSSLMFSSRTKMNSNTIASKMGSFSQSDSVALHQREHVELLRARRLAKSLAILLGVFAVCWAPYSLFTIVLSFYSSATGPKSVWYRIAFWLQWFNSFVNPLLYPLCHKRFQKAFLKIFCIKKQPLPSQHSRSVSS
# Experimental: as §1
# (§3) Details of individual binding assay conditions and protocols are available at the NIMH PDSP website: https://pdsp.unc.edu/pdspweb/.
# [3] = molecular target: T3, Beta3 (Homo sapiens, UniProt P13945); experiment: PDSP radioligand assay; assay type: binding
# T3 construct: purchased NIMH Psychoactive Drug Screening Program (PDSP)
# T3 sequence (P13945 whole entry): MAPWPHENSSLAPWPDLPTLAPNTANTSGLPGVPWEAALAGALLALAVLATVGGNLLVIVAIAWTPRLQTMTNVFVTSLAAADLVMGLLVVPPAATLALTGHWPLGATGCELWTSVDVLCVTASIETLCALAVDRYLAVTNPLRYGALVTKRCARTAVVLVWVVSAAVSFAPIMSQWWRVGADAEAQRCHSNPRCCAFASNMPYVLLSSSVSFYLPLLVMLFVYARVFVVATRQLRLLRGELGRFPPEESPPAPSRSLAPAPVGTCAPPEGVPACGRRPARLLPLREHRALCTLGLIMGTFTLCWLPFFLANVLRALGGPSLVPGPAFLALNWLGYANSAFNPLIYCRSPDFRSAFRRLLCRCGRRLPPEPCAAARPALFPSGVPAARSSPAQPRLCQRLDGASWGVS
# Experimental: as §1, §3
# [4] = molecular target: T4, Alpha1D (Homo sapiens, UniProt P25100); experiment: PDSP radioligand assay; assay type: binding
# T4 construct: purchased NIMH Psychoactive Drug Screening Program (PDSP)
# T4 sequence (P25100 whole entry): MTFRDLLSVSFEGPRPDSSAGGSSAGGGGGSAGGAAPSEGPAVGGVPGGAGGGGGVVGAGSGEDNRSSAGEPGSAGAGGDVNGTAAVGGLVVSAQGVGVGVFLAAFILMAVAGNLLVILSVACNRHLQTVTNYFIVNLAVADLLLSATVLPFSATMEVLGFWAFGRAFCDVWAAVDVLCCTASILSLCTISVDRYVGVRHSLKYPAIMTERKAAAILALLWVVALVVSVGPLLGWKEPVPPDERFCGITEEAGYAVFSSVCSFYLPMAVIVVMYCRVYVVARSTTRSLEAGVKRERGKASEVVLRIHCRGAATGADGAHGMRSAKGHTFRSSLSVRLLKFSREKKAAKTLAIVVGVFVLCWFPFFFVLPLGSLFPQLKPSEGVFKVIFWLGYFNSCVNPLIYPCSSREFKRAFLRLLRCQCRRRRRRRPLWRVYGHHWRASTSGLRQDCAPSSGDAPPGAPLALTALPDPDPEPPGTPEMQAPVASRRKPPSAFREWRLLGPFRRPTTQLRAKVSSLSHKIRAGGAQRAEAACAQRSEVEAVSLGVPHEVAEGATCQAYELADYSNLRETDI
# Experimental: as §1, §3
# [5] = tested on: BZP Rat Brain Site; experiment: PDSP radioligand assay; assay type: binding; settings: 10 µM
# Experimental: as §1, §3
# [6] = molecular target: T5, Alpha2A (Homo sapiens, UniProt P08913); experiment: PDSP radioligand assay; assay type: binding
# T5 sequence (P08913 1-465): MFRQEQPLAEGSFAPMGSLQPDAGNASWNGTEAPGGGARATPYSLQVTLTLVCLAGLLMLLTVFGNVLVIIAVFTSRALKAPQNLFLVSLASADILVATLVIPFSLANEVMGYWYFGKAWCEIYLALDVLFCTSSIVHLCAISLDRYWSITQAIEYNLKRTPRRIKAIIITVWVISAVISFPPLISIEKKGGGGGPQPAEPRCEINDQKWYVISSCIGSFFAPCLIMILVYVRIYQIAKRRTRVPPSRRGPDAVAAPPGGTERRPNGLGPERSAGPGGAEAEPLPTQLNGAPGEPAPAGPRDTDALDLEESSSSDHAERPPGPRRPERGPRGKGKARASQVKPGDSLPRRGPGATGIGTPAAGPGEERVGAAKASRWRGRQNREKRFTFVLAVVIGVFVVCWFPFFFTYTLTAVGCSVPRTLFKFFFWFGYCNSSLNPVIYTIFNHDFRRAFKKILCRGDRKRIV
# Experimental: as §1, §3
# [7] = molecular target: 5-HT7A (Homo sapiens, UniProt P34969); experiment: PDSP radioligand assay; assay type: binding
# 5-HT7A, sequence (P34969 1-445 isoform P34969-2): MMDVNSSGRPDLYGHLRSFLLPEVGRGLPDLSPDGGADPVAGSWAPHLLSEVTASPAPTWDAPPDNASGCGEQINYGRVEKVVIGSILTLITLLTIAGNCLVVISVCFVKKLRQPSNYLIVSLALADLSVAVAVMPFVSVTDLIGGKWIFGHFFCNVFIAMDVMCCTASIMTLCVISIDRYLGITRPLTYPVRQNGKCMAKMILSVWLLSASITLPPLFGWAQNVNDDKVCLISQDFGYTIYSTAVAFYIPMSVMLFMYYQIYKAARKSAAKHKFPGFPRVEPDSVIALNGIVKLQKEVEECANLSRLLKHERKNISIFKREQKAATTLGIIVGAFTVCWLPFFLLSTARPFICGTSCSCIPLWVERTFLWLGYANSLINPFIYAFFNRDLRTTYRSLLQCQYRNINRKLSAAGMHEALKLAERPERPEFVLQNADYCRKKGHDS
# Experimental: as §1, §3
# [8] = molecular target: T6, D4 (Homo sapiens, UniProt P21917); experiment: PDSP radioligand assay; assay type: binding
# T6 construct: purchased NIMH Psychoactive Drug Screening Program (PDSP)
# T6 sequence (P21917 whole entry): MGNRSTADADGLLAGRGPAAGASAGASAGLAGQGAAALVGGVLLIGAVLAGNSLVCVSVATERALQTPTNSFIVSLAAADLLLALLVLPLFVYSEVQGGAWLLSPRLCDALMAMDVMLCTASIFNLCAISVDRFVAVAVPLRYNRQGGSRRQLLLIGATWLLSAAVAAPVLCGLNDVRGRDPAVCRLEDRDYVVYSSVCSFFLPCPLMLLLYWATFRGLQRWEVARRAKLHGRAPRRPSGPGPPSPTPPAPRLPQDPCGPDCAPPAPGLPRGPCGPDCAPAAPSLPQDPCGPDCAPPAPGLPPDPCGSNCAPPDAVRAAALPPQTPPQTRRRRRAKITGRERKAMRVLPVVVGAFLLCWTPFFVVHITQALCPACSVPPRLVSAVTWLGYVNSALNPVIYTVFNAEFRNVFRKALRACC
# Experimental: as §1, §3
# [9] = molecular target: T7, DOR (Homo sapiens, UniProt P41143); experiment: PDSP radioligand assay; assay type: binding
# T7 construct: purchased NIMH Psychoactive Drug Screening Program (PDSP)
# T7 sequence (P41143 whole entry): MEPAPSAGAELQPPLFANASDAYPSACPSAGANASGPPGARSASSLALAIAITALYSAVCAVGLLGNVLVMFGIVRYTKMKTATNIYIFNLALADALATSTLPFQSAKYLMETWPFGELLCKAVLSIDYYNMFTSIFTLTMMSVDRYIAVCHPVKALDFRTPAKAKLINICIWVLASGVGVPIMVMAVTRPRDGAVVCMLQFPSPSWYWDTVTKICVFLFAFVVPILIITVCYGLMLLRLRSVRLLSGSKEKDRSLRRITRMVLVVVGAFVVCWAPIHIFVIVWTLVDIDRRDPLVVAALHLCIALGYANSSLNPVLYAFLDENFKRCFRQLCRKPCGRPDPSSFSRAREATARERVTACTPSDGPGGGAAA
# Experimental: as §1, §3
# [10] = molecular target: T8, 5-HT3 (Homo sapiens, UniProt P46098); experiment: PDSP radioligand assay; assay type: binding
# T8 construct: purchased NIMH Psychoactive Drug Screening Program (PDSP)
# T8 sequence (P46098 24-478): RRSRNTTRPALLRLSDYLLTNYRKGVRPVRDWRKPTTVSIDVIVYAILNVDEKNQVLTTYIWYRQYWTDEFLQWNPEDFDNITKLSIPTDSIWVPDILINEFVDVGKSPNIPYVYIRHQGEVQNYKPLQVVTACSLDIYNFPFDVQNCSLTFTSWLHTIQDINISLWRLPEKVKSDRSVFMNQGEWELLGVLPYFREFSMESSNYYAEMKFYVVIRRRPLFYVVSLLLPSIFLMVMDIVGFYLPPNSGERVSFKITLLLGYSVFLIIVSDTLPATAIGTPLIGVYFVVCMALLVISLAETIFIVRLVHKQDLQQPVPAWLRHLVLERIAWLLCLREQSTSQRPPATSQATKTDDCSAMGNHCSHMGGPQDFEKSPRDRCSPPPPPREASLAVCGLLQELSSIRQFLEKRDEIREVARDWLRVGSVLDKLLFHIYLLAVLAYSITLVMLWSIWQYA
# Experimental: as §1, §3
# [11] = molecular target: T9, PBR (Rattus norvegicus, UniProt P16257); experiment: PDSP radioligand assay; assay type: binding
# T9 construct: purchased NIMH Psychoactive Drug Screening Program (PDSP)
# [12] = tested on: σ2R; experiment: Ex vivo competitive radioligand binding assay for σ2R, [3H]-DTG; parameters: species or system Dunkin Hartley guinea pig; settings: selectivity ratio, guinea pig brain membranes
# Experimental: as §1
# as §2, with “Membrane preparation of brain tissue was performed following the previously reported method.4 Generally, for σ 1R binding test, guinea pig brain membranes protein (5‐10 mg), [^3H]‐(+)‐pentazocine (4 nM), test compounds solution in various concentrations (10^−5 to 10^−10 M) were incubated at 25 °C for 180 min in Tris‐HCl buffer (pH 8.0).” left out
# [13] = molecular target: T10, SERT (Homo sapiens, UniProt P31645); experiment: PDSP radioligand assay; assay type: binding
# T10 construct: purchased NIMH Psychoactive Drug Screening Program (PDSP)
# T10 sequence (P31645 whole entry): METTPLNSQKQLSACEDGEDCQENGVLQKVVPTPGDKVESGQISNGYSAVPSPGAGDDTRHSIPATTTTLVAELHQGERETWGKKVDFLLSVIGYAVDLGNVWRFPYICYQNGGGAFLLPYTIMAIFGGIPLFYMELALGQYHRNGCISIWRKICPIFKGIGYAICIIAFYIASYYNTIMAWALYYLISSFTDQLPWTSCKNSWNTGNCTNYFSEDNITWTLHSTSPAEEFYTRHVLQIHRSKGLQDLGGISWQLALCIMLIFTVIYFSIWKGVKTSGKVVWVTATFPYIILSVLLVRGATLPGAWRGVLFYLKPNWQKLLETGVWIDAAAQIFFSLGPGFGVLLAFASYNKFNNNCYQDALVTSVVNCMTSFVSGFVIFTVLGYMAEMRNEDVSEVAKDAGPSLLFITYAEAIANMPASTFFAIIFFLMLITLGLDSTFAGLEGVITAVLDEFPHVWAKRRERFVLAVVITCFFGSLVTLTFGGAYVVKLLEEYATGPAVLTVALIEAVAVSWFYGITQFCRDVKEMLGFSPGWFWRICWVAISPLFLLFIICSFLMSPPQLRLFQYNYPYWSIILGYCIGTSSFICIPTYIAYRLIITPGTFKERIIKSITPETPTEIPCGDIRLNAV
# [14] = molecular target: T11, M5 (Homo sapiens, UniProt P08912); experiment: PDSP radioligand assay; assay type: binding
# T11 sequence (P08912 1-532): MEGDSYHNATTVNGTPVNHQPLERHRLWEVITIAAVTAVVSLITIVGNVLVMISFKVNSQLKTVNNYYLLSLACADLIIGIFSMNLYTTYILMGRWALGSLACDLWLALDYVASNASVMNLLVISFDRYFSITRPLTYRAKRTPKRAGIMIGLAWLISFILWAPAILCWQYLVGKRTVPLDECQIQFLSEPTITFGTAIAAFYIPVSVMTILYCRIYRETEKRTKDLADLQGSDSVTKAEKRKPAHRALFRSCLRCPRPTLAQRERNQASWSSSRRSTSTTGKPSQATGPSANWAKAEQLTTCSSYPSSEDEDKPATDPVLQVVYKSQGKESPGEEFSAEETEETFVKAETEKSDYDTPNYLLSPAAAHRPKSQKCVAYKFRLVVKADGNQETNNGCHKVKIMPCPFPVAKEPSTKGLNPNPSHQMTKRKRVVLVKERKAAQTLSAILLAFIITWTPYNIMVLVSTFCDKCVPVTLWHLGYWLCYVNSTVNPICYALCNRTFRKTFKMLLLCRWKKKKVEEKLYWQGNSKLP
# T1 sequence (Q60492 whole entry): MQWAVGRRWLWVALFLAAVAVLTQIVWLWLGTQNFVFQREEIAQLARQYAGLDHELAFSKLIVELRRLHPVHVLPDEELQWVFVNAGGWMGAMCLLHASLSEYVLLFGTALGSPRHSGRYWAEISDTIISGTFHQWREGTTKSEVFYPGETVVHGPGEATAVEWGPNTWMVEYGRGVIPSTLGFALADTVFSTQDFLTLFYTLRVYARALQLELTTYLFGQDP
compound,measurement,setting,value
"COc1ccc(-c2nc(C)c(Cl)c(OCCCN3CCCCC3)n2)cc1 [CNY-01, 5‐chloro‐2‐(4‐methoxyphenyl)‐4‐methyl‐6‐(3‐(piperidin‐1‐yl)propoxy)pyrimidine]",pKi,[1],8.41
same,inhibition at 10 µM,[2],24%
same,inhibition at 10 µM,[3],9.11%
same,inhibition at 10 µM,[4],23%
same,Mean % (inhibition),[5],10.99%
same,pKi,[6],5.62
same,inhibition at 10 µM,[6],55.9%
same,pKi,[7],5.33
same,inhibition at 10 µM,[7],59.3%
same,inhibition at 10 µM,[8],48%
same,inhibition at 10 µM,[9],3.77%
same,inhibition at 10 µM,[10],7.61%
same,inhibition at 10 µM,[11],25.8%
same,σ2R/σ1R,[12],322
same,inhibition at 10 µM,[13],21.8%
same,pKi,[14],< 5.00
same,inhibition at 10 µM,[14],59.1%
"Cc1nc(-c2ccc(Cl)cc2)nc(OCCCN2CCN(C)CC2)c1Cl [CNY-02, 5‐chloro‐2‐(4‐chlorophenyl)‐4‐methyl‐6‐(3‐(4‐methylpiperazin‐1‐yl)propoxy)pyrimidine]",pKi,[1],8.69
same,inhibition at 10 µM,[2],23.3%
same,inhibition at 10 µM,[3],-3.01%
same,inhibition at 10 µM,[4],-14.8%
same,Mean % (inhibition),[5],23.26%
same,inhibition at 10 µM,[6],47.6%
same,inhibition at 10 µM,[7],-4.02%
same,inhibition at 10 µM,[8],17.8%
same,inhibition at 10 µM,[9],1.3%
same,inhibition at 10 µM,[10],-1.23%
same,inhibition at 10 µM,[11],26%
same,σ2R/σ1R,[12],627
same,inhibition at 10 µM,[13],43%
same,pKi,[14],5.60
same,inhibition at 10 µM,[14],83.3%

# From publication PMC12140300, “Development of Carbon‐11 Labeled Pyrimidine Derivatives as Novel Positron Emission Tomography (PET) Agents Enabling Brain Sigma‐1 Receptor Imaging” (Advanced Science, 2025)
